Measurements reported in PMC12281475, “Mediator Kinase Inhibitor Selectivity and Activity in Colorectal Cancer” (ACS Chemical Biology, 2025).

Assay: Plasma total concentration of compound (LC-MS/MS)
Assay type: in vivo, mice
Conditions: 6 h after final dose
Description: for 20 mins at room temperature. […]
and body weights recorded. […]
quantification and pharmacodynamic biomarker analyses. All samples were stored […]
Plasma homogenates were extracted with 3 equivalent volumes of methanol containing olomoucine (500 nM) as an internal standard. Extracts were quantified for […]
ranging from 2 nM to 50 000 nM) with 4 quality control samples (25, 250,2500, and 7500 nM in duplicate) included at the beginning and the end of the analytical run.
Plasma homogenates were measured by LC−MS/MS on a Waters TQS following a separation on a Waters Acquity BEH C18 column (50 mm × 2.1 mm; 1.7 μm) with conditions of 0.1% formic acid (mobile phase A) and methanol (mobile phase B). The column was equilibrated at initial condition of 95% A and 5% B, linear gradient over 3 min to 100% B, held over 1 min, followed by linear gradient back to 5% B over 0.1 min, […]
mode by multiple reaction monitoring, 412.17 > 376.40at 33 eV for compound 109, […]
Phospho-proteome analyses
Adherent COLO205 cells were washed with PBS and cells lysed using urea lysis buffer (9 M Urea, 20 mM HEPES, pH 8.0, 1 mM beta-glycerophosphate, 1 mM sodium vanadate, 2.5 mM sodium pyrophosphate) and stored at -80 °C prior to analysis. The supernatants were reduced with 100 mM DTT for 30 minutes at 55 °C, followed by alkylation with 50 mM iodoacetimide for 15 minutes at ambient temperature in the dark. […]

Cn1ncc2cc(-c3cnc(N)c(Cl)c3N3CCC4(CCNC4=O)CC3)ccc21 [CCT251921]
plasma total concentrations, parent versus knockout clones (14-20 days, 42 mg/kg p.o qd 5/7 days, exception CDK8-KO-cl2 (p < 0.05)): no significant differences
plasma levels in parent versus individual knockout clones (3 days, 42 mg/kg p.o. qd): no significant difference
